From patent US10835524B2, “Compositions for the treatment of pancreatic cancer and uses thereof” (University of Florida Research Foundation, Incorporated, priority 2015, dated 2020)

Tests used:
[1] = system: 4 KRAS mutant PDAC cell lines (MIA PaCa-2, Panc-1, T182, E549); assay: Viability of KRAS mutant PDAC cell lines after single-drug treatment, MTT assay at 72 hours; type: cell-based, human; murine; conditions: 4 PDAC cell lines
Method: We treated each cell line with the mTOR inhibitor Everolimus, the AKT inhibitor MK-2206, the dual PI-3K/mTOR inhibitor BEZ235, and the MEK inhibitor Selumetinib, or Compound P (mefloquine), prior to viability assessment at 72 hours via MTT assay.
To determine optimal doses for combination, we first analyzed the viability dose-response curves for each drug. […] The optimal dose for each drug was then serially diluted by one-half from the chosen optimal dose to 1/32nd of the chosen optimal dose, such that six combination points could be analyzed. Because the ratio of each drug in each experiment remained constant in all serial dilutions, we refer to this method as the “fixed molar ratio method”.

human TS = human TS (Homo sapiens, UniProt P04818); assay: Inhibition of the enzymatic activity of thymidylate synthase; type: biochemical
Sequence of human TS (P04818 whole entry): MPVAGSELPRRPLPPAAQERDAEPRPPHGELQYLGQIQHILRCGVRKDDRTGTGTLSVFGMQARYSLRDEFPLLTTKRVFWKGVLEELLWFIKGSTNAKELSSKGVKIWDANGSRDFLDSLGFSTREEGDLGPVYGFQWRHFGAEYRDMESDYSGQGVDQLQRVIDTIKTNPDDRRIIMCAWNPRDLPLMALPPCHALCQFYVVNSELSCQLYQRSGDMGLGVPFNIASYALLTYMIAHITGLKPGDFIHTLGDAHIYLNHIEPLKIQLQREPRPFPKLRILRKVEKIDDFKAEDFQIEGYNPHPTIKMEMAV

PDAC = assay: Inhibition of PDAC in vivo by combination with KRAS/PI-3K/AKT/mTOR pathway inhibitors; conditions: partner inhibitors not named

Compound	growth inhibition effect on cell viability [1]	mode of inhibition of the enzymatic activity of human TS (human TS)	synergy with inhibitors of the KRAS/PI-3K/AKT/mTOR pathway to inhibit PDAC in vivo (PDAC)
Cn1c(=O)n(-c2ccc(C(C)(C)C#N)cc2)c2c3cc(-c4cnc5ccccc5c4)ccc3ncc21 [BEZ235, 2-methyl-2-[4-(3-methyl-2-oxo-8-quinolin-3-ylimidazo[4,5-c]quinolin-1-yl)phenyl]propanenitrile]	fully cytotoxic in 3 out of 4 cell lines	–	–
OC(c1cc(C(F)(F)F)nc2c(C(F)(F)F)cccc12)C1CCCCN1 (stereo not drawn) [Compound P, [2,8-bis(trifluoromethyl)quinolin-4-yl]-piperidin-2-ylmethanol]	cytotoxic in all cell lines tested	partial mixed-type	synergizes
CO[C@H]1C[C@@H]2CC[C@@H](C)[C@@](O)(O2)C(=O)C(=O)N2CCCC[C@H]2C(=O)O[C@H]([C@H](C)C[C@@H]2CC[C@@H](OCCO)[C@H](OC)C2)CC(=O)[C@H](C)/C=C(\C)[C@@H](O)[C@@H](OC)C(=O)[C@H](C)C[C@H](C)/C=C/C=C/C=C/1C [Everolimus, (1S,9R,15R,16E,18R,19R,21S,23R,24E,26E,28E,30S,32R,35S)-1,18-dihydroxy-12-[(2S)-1-[(1S,3R,4R)-4-(2-hydroxyethoxy)-3-methoxycyclohexyl]propan-2-yl]-19,30-dimethoxy-15,17,21,23,29,35-hexamethyl-11,36-dioxa-4-azatricyclo[30.3.1.0^4,^9]hexatriaconta-16,24,26,28-tetraene-2,3,10,14,20-pentone]	potently cytostatic	–	–
Cl.Cl.NC1(c2ccc(-c3nc4ccn5c(=O)[nH]nc5c4cc3-c3ccccc3)cc2)CCC1 [MK-2206, 8-[4-(1-aminocyclobutyl)phenyl]-9-phenyl-2H-[1,2,4]triazolo[3,4-f][1,6]naphthyridin-3-one; dihydrochloride]	fully cytotoxic in 3 out of 4 cell lines	–	–
